Results taken from the NIST ThermoML archive (doi:10.1021/je8009336).

Assays:
[1] = refractive index (Na D-line) (dimensionless); xn = mol fraction of the nth substance listed; conditions: 313.15 K, 101 kPa, Liquid, Standard Abbe refractometry
[2] = xn = mol fraction of the nth substance listed; conditions: 313.15 K, 101 kPa, Liquid; for speed of sound: Vibrating Tube Densimeter; for mass density: Vibrating tube method

c1ccccc1 [benzene] + C1CCCC1
x2 = 0
Conditions | mass density [kg/m3] | refractive index | speed of sound [m/s]
[1] | – | 1.48777 | –
[2] | 857.5 | – | 1230.5

c1ccccc1 [benzene] + C1CCCCC1
x2 = 0
Conditions | mass density [kg/m3] | refractive index | speed of sound [m/s]
[1] | – | 1.48777 | –
[2] | 857.5 | – | 1230.5

c1ccccc1 [benzene] + CC1CCCCC1
x2 = 0
Conditions | mass density [kg/m3] | refractive index | speed of sound [m/s]
[1] | – | 1.48777 | –
[2] | 857.5 | – | 1230.5

C1CCCCC1 [cyclohexane] + CCc1ccccc1
x1 = 1
Conditions | mass density [kg/m3] | refractive index | speed of sound [m/s]
[1] | – | 1.41513 | –
[2] | 759.6 | – | 1181.7

C1CCCCC1 [cyclohexane] + Cc1ccccc1
Conditions | mass density, [2] [kg/m3] | refractive index, [1] | speed of sound, [2] [m/s]
x1 = 0.0377 | 844.4 | 1.48212 | 1236.8
x1 = 0.0967 | 838.2 | 1.47761 | 1230
x1 = 0.1945 | 828.5 | 1.47007 | 1220.1
x1 = 0.2433 | 823.4 | 1.46621 | 1215.4
x1 = 0.3985 | 808.6 | 1.45475 | 1202.3
x1 = 0.5672 | 793.4 | 1.44276 | 1191.4
x1 = 0.5965 | 790.9 | 1.44073 | 1189.8
x1 = 0.7019 | 781.9 | 1.43356 | 1185.1
x1 = 0.7958 | 774.4 | 1.4276 | 1182.2
x1 = 0.9011 | 766.5 | 1.42097 | 1181.2
x1 = 0.95 | 763 | 1.41807 | 1180.9
x1 = 1 | 759.6 | 1.41513 | 1181.7

C1CCCCC1 [cyclohexane] + c1ccccc1
Conditions | mass density, [2] [kg/m3] | refractive index, [1] | speed of sound, [2] [m/s]
x1 = 0.0819 | 846.2 | 1.47958 | 1218.9
x1 = 0.1282 | 840.2 | 1.47489 | 1213.2
x1 = 0.2087 | 830.1 | 1.46761 | 1204.5
x1 = 0.2898 | 820.5 | 1.46073 | 1197
x1 = 0.4018 | 808.5 | 1.45171 | 1188.6
x1 = 0.5047 | 798.3 | 1.44414 | 1183.3
x1 = 0.6058 | 789.1 | 1.43724 | 1179.8
x1 = 0.7 | 780.9 | 1.43118 | 1177.7
x1 = 0.7989 | 773.2 | 1.42538 | 1177.3
x1 = 0.9059 | 765.7 | 1.41966 | 1178.6
x1 = 0.9505 | 762.7 | 1.41753 | 1179.7
x1 = 1 | 759.6 | 1.41513 | 1181.7

C1CCCC1 [cyclopentane] + CCc1ccccc1
Conditions | mass density, [2] [kg/m3] | refractive index, [1] | speed of sound, [2] [m/s]
x1 = 0.0393 | 845.5 | 1.48234 | 1251.9
x1 = 0.083 | 841.2 | 1.47928 | 1246.4
x1 = 0.1874 | 830.5 | 1.4714 | 1232.9
x1 = 0.2847 | 820 | 1.46405 | 1219.9
x1 = 0.3689 | 810.5 | 1.45715 | 1209.3
x1 = 0.541 | 789.9 | 1.44226 | 1186.8
x1 = 0.6281 | 778.7 | 1.43421 | 1175.5
x1 = 0.687 | 770.9 | 1.42853 | 1168
x1 = 0.7988 | 755.3 | 1.41702 | 1154
x1 = 0.898 | 740.8 | 1.40651 | 1141.9
x1 = 0.9475 | 733.2 | 1.40072 | 1135.9
x1 = 1 | 725 | 1.39456 | 1130

C1CCCC1 [cyclopentane] + Cc1ccccc1
Conditions | mass density, [2] [kg/m3] | refractive index, [1] | speed of sound, [2] [m/s]
x1 = 0.0418 | 843.6 | 1.48201 | 1235.6
x1 = 0.0924 | 838 | 1.47801 | 1228.7
x1 = 0.1907 | 826.8 | 1.46979 | 1215.8
x1 = 0.2717 | 817.3 | 1.46313 | 1205.2
x1 = 0.3579 | 807 | 1.45562 | 1194.8
x1 = 0.4944 | 790.4 | 1.44336 | 1178.6
x1 = 0.5862 | 778.9 | 1.43503 | 1168.4
x1 = 0.6895 | 765.8 | 1.42526 | 1157.4
x1 = 0.7951 | 752.2 | 1.41512 | 1147.3
x1 = 0.8958 | 738.9 | 1.40537 | 1138.3
x1 = 0.9456 | 732.3 | 1.40037 | 1134.2
x1 = 1 | 725 | 1.39456 | 1130

C1CCCC1 [cyclopentane] + c1ccccc1
Conditions | mass density, [2] [kg/m3] | refractive index, [1] | speed of sound, [2] [m/s]
x1 = 0.0366 | 852 | 1.48417 | 1224.4
x1 = 0.0941 | 843.4 | 1.47833 | 1215.7
x1 = 0.1945 | 828.6 | 1.46795 | 1200.6
x1 = 0.2706 | 817.8 | 1.46049 | 1190.2
x1 = 0.3937 | 800.7 | 1.44843 | 1175.5
x1 = 0.4893 | 787.8 | 1.43934 | 1165
x1 = 0.5917 | 774.4 | 1.42988 | 1155.3
x1 = 0.6893 | 762.1 | 1.4211 | 1147.2
x1 = 0.7983 | 748.6 | 1.41158 | 1139.7
x1 = 0.8971 | 736.8 | 1.40315 | 1134.2
x1 = 0.9471 | 731 | 1.39904 | 1132
x1 = 1 | 725 | 1.39456 | 1130

CCc1ccccc1 [ethylbenzene] + C1CCCC1
x2 = 0
Conditions | mass density [kg/m3] | refractive index | speed of sound [m/s]
[1] | – | 1.48538 | –
[2] | 849.3 | – | 1257.3

CCc1ccccc1 [ethylbenzene] + C1CCCCC1
Conditions | mass density, [2] [kg/m3] | refractive index, [1] | speed of sound, [2] [m/s]
x2 = 0 | 849.3 | 1.48538 | 1257.3
x2 = 0.0515 | 844.7 | 1.4814 | 1251.8
x2 = 0.0976 | 840.5 | 1.47828 | 1247
x2 = 0.2494 | 826.7 | 1.46788 | 1231.8
x2 = 0.3647 | 816.2 | 1.45999 | 1221.3
x2 = 0.3855 | 814.3 | 1.45831 | 1219.3
x2 = 0.5028 | 803.6 | 1.45026 | 1209.4
x2 = 0.6009 | 794.6 | 1.44349 | 1201.9
x2 = 0.7005 | 785.6 | 1.43614 | 1195
x2 = 0.7976 | 776.9 | 1.42925 | 1189.2
x2 = 0.9017 | 768 | 1.42208 | 1184.5
x2 = 0.9504 | 763.8 | 1.41865 | 1182.8

CCc1ccccc1 [ethylbenzene] + CC1CCCCC1
x2 = 0
Conditions | mass density [kg/m3] | refractive index | speed of sound [m/s]
[1] | – | 1.48538 | –
[2] | 849.3 | – | 1257.3

CC1CCCCC1 [methylcyclohexane] + CCc1ccccc1
Conditions | mass density, [2] [kg/m3] | refractive index, [1] | speed of sound, [2] [m/s]
x1 = 0.0509 | 843.8 | 1.48108 | 1249.9
x1 = 0.0975 | 838.9 | 1.4774 | 1243.4
x1 = 0.1957 | 828.6 | 1.46965 | 1230.3
x1 = 0.2794 | 820 | 1.46339 | 1219.8
x1 = 0.4006 | 807.9 | 1.45428 | 1205.4
x1 = 0.4962 | 798.4 | 1.44736 | 1194.9
x1 = 0.5977 | 788.6 | 1.44003 | 1184.5
x1 = 0.6968 | 779.2 | 1.43303 | 1174.9
x1 = 0.7988 | 769.7 | 1.42601 | 1165.7
x1 = 0.8973 | 760.9 | 1.41941 | 1157.5
x1 = 0.9483 | 756.4 | 1.41609 | 1153.5
x1 = 1 | 752 | 1.41272 | 1149.6

CC1CCCCC1 [methylcyclohexane] + Cc1ccccc1
Conditions | mass density, [2] [kg/m3] | refractive index, [1] | speed of sound, [2] [m/s]
x1 = 0.0488 | 842.1 | 1.48065 | 1233.3
x1 = 0.0977 | 836.1 | 1.4763 | 1226
x1 = 0.1967 | 824.6 | 1.4675 | 1212.4
x1 = 0.2969 | 813.6 | 1.45909 | 1200.1
x1 = 0.3751 | 805.5 | 1.45314 | 1191.7
x1 = 0.5049 | 792.7 | 1.44348 | 1179.2
x1 = 0.5986 | 784 | 1.43702 | 1171.5
x1 = 0.7022 | 774.9 | 1.43008 | 1164
x1 = 0.8016 | 766.8 | 1.42397 | 1158.1
x1 = 0.9003 | 759.1 | 1.41817 | 1153.2
x1 = 0.9487 | 755.5 | 1.41549 | 1151.2
x1 = 1 | 752 | 1.41272 | 1149.6
